Test results: patent US20090111774A1, “PMEA LIPID CONJUGATES” (Luitpold Pharmaceuticals, Inc., priority 2007, published 2009)
Values joined by “and” are separate entries in the source; they are usually repeats but may differ in a detail not shown here. Equal entries are not always repeated.

Key:
microtubule assembly = details: Bradley et al., Clin. Cancer Res. 2001; cited from earlier work
HSV-1 = test: In vitro antiviral screening (selectivity index), HSV-1; assay type: cell-based, herpes simplex virus type 1
HSV-2 = test: In vitro antiviral screening (selectivity index), HSV-2; assay type: cell-based, herpes simplex virus type 2
HCMV = test: In vitro antiviral screening (selectivity index), HCMV; assay type: cell-based, herpes cytomegalovirus
VZV = test: In vitro antiviral screening (selectivity index), VZV; assay type: cell-based, varicella-zoster virus
BK (polyoma) = assay type: cell-based, polyoma (BK) virus
Cowpox = assay type: cell-based
Vaccinia = assay type: cell-based
Measles = test: In vitro antiviral screening (selectivity index), Measles (NR assay); assay type: cell-based, measles virus
Dengue = test: In vitro antiviral screening (selectivity index), Dengue; assay type: cell-based
Adeno = assay type: cell-based
Yellow Fever = assay type: cell-based
Punta Toro = assay type: cell-based
Flu A = assay type: cell-based
Flu B = assay type: cell-based
SARS = assay type: cell-based
Tacaribe = assay type: cell-based
PIV = assay type: cell-based
RSV A = test: In vitro antiviral screening (selectivity index), RSV A; assay type: cell-based
RV 2 = assay type: cell-based
VEE = assay type: cell-based
Rift Valley Fever = assay type: cell-based
Pichinde = assay type: cell-based
HPV-11 = test: In vitro antiviral screening (selectivity index), HPV-11; assay type: cell-based; details: human papillomavirus (HPV)
[1] = cited from earlier work
[2] = biological target: human immunodeficiency virus-specified reverse transcriptase (Human immunodeficiency virus type 1 group M subtype B, UniProt P04585); details: HIV reverse transcriptase; cited from earlier work
[3] = biological target: cellular DNA polymerase alpha (Homo sapiens, UniProt P09884); details: cited from earlier work
Chain of cellular DNA polymerase alpha (P09884 whole entry): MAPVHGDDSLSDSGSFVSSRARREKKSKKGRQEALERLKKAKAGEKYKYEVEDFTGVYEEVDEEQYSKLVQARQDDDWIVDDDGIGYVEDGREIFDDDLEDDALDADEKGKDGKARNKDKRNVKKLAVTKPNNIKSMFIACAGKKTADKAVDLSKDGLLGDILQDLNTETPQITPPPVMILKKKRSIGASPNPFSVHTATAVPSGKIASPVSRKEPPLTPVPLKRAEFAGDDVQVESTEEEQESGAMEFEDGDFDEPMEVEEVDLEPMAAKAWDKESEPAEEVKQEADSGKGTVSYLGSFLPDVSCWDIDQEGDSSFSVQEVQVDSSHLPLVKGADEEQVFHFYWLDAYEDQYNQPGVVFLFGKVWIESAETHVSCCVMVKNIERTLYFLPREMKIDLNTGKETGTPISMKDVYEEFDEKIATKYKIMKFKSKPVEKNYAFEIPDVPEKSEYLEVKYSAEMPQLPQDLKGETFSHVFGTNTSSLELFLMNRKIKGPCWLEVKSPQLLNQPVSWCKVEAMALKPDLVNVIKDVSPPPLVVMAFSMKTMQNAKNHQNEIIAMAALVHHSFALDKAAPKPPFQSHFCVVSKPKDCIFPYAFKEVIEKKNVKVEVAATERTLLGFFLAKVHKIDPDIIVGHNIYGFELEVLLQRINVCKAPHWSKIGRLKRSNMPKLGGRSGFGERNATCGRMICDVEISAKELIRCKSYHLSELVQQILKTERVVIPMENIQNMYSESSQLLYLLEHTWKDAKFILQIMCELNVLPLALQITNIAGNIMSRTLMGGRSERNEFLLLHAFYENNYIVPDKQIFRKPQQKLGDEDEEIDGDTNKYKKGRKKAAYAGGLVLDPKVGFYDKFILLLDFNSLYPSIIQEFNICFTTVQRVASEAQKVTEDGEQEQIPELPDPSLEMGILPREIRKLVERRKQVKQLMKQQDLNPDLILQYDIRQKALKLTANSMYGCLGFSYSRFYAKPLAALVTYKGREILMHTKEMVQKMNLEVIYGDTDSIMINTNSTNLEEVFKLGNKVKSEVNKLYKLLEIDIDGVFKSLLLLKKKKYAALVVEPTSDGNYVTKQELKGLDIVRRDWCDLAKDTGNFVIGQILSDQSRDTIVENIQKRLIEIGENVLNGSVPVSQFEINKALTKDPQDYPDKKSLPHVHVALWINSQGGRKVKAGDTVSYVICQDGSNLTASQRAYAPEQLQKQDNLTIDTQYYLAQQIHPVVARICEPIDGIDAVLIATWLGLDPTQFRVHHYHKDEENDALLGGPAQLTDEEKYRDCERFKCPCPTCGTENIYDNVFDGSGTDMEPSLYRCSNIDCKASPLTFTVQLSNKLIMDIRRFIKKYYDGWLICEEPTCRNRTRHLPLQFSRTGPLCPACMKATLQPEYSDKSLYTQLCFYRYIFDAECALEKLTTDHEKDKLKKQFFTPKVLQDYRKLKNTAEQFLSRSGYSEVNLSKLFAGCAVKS

SMILES: CC/C=C\C/C=C\C/C=C\C/C=C\C/C=C\C/C=C/CCC(=O)O[C@@H](C(=O)O[C@H]1C[C@@]2(O)[C@@H](OC(=O)c3ccccc3)C3[C@](C)(C(=O)[C@H](OC(C)=O)C(=C1C)C2(C)C)[C@@H](O)C[C@H]1OC[C@@]31OC(C)=O)[C@@H](NC(=O)c1ccccc1)c1ccccc1 (stereo partly drawn) [DHA-paclitaxel]
- activity as intact conjugate (microtubule assembly): inactive as intact conjugates

SMILES: CCCCCCCC/C=C\CCCCCCCC(=O)NC1=NC=NC2C1N=CN2CCOCP(=O)([O-])[O-].[Na+].[Na+] (stereo not drawn) [Formula III, PMEA-oleyl amide]
- SI (selectivity index) (HSV-1; HSV-1 (1), first replicate): >17.8
- SI (selectivity index) (HSV-1; HSV-1 (2), second replicate): >143
- antiviral activity / sensitivity of virus (HSV-1; HSV-1, in vitro): sensitive only to the compound of Formula III
- SI (selectivity index) (HSV-2; HSV-2 (1), first replicate): >8.5
- SI (selectivity index) (HSV-2; HSV-2 (2), second replicate): 5.7
- antiviral activity / sensitivity of virus (HSV-2; HSV-2, in vitro): sensitive only to the compound of Formula III
- SI (selectivity index) (HCMV): 1
- antiviral activity / sensitivity of virus (VZV): sensitive
- SI (selectivity index) (BK (polyoma)): >213
- antiviral activity / sensitivity of virus (BK (polyoma)): sensitive
- SI (selectivity index) (Cowpox): 1
- SI (selectivity index) (Vaccinia): 1 and >2
- SI (selectivity index) (Measles; Measles (NR assay)): >20
- antiviral activity / sensitivity of virus (Measles; measles virus, in vitro): sensitive only to the compound of Formula III
- SI (selectivity index) (Dengue): 1
- SI (selectivity index) (Adeno): 1
- SI (selectivity index) (Yellow Fever): 1
- SI (selectivity index) (Punta Toro): 1
- SI (selectivity index) (Flu A): 1
- SI (selectivity index) (Flu B): 1
- SI (selectivity index) (SARS): 1
- SI (selectivity index) (Tacaribe): 2
- SI (selectivity index) (PIV): 1
- SI (selectivity index) (RSV A): 1
- SI (selectivity index) (RV 2): 1
- SI (selectivity index) (VEE): 1
- SI (selectivity index) (Rift Valley Fever): 1
- SI (selectivity index) (Pichinde): 1
- antiviral activity / sensitivity of virus (HPV-11): sensitive only to the compound of Formula III

SMILES: Nc1ncnc2c1ncn2CCOCP(=O)(O)OP(=O)(O)OP(=O)(O)O [PMEApp]
- intracellular half-life [1]: 16 to 18 h
- Ki/Km [2]: 0.01
- Ki/Km [3]: 0.60
